Data set [1] deals with HeLa cells. Description: HeLa cell viability (PrestoBlue) assay, 72 h. Type of data set: cell-based, human. Conditions: HeLa cells; for GI50: Homo sapiens. As to the method:
The human HeLa cell line was tested negative for mycoplasma contamination. HeLa cells were grown in RPMI 1640 medium supplemented with penicillin/streptomycin (100 μg/ml) and 10% FBS and maintained in a humidified incubator at 37°C and 5% CO2.
Cell viability was analyzed using the colorimetric PrestoBlue assay. Cells were seeded in 96-well microplates at a density of 7500 cells per well, allowed to adhere for 24 hours, and treated for 72 hours with either DMSO or drugs at indicated concentrations. PrestoBlue (10 μl) was then added to each well, followed by a 30-min incubation. Fluorescence was measured using a FLUOstar Optima microplate reader (excitation, 544 nm; emission, 580 nm; BMG Labtech).

Data set [2] has as its target T1, NAMPT (Homo sapiens, UniProt P43490). The data set can be described thus: NAMPT activity assay (coupled recombinant enzyme kit). Format: biochemical. More on the design: purchased Abcam ab221819. Conditions: OD450 at 60 min, normalized by subtraction of DMSO value. From the text:
We next tested whether Carba1 could activate NAMPT in vitro. To that aim, we used a commercial recombinant human enzyme assay containing four enzymes: NAMPT, NAM nucleotide adenylyltransferase 1 (NMNAT1), alcohol dehydrogenase (ADH), and diaphorase (see Materials and Methods). In the presence of NAM and 5-phosphoribosyl-1-pyrophosphate (PRPP), NAMPT converts NAM to NMN, which is then converted into NAD^+ by NMNAT1, while ADH converts NAD^+ to NADH. Then, into a coupled-reaction, diaphorase converts NADH into NAD^+ and tetrazolium salt WST-1 {4-[3-(4-iodophenyl)-2-(4-nitro-phenyl)-2H-5-tetrazolio]-1,3-benzene sulfonate} to formazan, which can be detected at optical density at 450 nm (OD450). In practice, we proceeded in two steps. First, Carba1 and the different tested compounds were incubated for 15 min with NAMPT, NMNAT1, NAM, and PRPP to allow NAD^+ production. The reaction was then stopped with FK866 before adding ADH and diaphorase to convert the NAD^+ produced to NADH, and absorbance was monitored at regular intervals.
NAMPT activity was measured using the commercial kit, NAMPT Activity Assay, according to the manufacturer’s instructions. […] A mixture of water-soluble tetrazolium salts (WST-1), ADH, diaphorase, and ethanol was added and the absorbance (OD450) measured for 90 min using the microplate reader ClarioSTAR (BMG Labtech).
Target sequence in this assay (P43490 whole entry): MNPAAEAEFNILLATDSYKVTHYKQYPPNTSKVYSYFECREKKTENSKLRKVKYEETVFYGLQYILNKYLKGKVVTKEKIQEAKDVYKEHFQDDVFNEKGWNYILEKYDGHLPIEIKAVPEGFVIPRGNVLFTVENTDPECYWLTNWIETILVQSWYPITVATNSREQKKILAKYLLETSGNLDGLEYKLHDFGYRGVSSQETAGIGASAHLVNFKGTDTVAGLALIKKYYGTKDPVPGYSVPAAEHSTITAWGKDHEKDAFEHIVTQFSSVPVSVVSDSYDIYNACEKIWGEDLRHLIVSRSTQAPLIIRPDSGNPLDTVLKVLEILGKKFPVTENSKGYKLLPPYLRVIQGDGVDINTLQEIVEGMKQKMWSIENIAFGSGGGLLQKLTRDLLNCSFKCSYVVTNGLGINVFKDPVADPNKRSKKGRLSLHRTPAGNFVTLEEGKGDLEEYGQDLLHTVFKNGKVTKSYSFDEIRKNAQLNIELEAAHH

Data set [3] deals with HeLa cells. Description: NAD(P)H autofluorescence imaging in live HeLa cells. Type of data set: cell-based, human. Conditions: 5 and 10 nM FK866, 24-hour incubation. As to the method:
HeLa cells were seeded in four-chamber Labtek plates at 10,000 cells per well. After 48 hours, cells were preincubated with or without 12 μM Carba1 for 2 hours before addition of FK866 (5 and 10 nM). Drugs were added to phenol red–free DMEM medium, supplemented with 10% FBS 1% penicillin/streptomycin. After 24 hours of drug incubation, cells were imaged using a confocal microscope (LSM 710, Zeiss) with a two-photon excitation at 700 nm (Chameleon Vision Laser, Coherent) and a 40×/1.2 water-immersion objective. Detection was performed in single-photon mode using an avalanche photodiode detector (ConfoCor 3). NAD(P)H signal intensity was quantified as the mean signal per cell using ImageJ and normalized to the cell area.

The subject of the next data set is carbonic anhydrase (CA). The data set can be described thus: AS-MS binding assay, carbonic anhydrase (negative control). Conditions: 10 μM compound, 3 μM carbonic anhydrase. As to the method: To this end, Carba1 or FK866 (positive control of NAMPT binding) was first incubated with NAMPT or carbonic anhydrase (CA; negative control). Protein-ligand complexes were separated from the unbound compounds by size exclusion chromatography (SEC). To quantify the protein-bound fraction, the complexes were then dissociated using reverse-phase chromatography, and the compounds were analyzed and quantified by mass spectrometry. By comparing the amounts of compound before (preSEC) and after (postSEC) SEC in the presence of CA or NAMPT, we assessed their ability to selectively bind to NAMPT.
(§1) AS-MS was used to assess compound binding to NAMPT. AS-MS was performed by Edelris SAS (www.edelris.com/), which has developed the commercial AS-MS service “EDEN platform,” based on ([71]). Conditions consisted of protein (NAMPT and CA) at 3 μM and compounds (Carba1 and FK866) at 10 μM dissolved in corporate buffer.

Data set [4] has as its target T1, NAMPT. The data set can be described thus: AS-MS binding assay, NAMPT. The note with it: 10 μM compound, 3 μM NAMPT. As to the method: To this end, Carba1 or FK866 (positive control of NAMPT binding) was first incubated with NAMPT or carbonic anhydrase (CA; negative control). Protein-ligand complexes were separated from the unbound compounds by size exclusion chromatography (SEC). To quantify the protein-bound fraction, the complexes were then dissociated using reverse-phase chromatography, and the compounds were analyzed and quantified by mass spectrometry.
as §1
Target sequence in this assay (P43490 whole entry, species assumed): as the sequence (P43490 whole entry) above

For data set [5], the system named is HeLa cells xenografted in mice. Description: HeLa tumor xenograft in nude mice. Type of data set: in vivo. Conditions: i.v. every 2 days, PTX 8 mg/kg, Carba1 60 mg/kg alone or with PTX. As to the method:
Five-week-old NMRI nude mice (Janvier Labs) were implanted with 10 × 10^6 HeLa cells (200 μl in PBS) on the right flank. On day 6, the mean tumor volume was 120 ± 4 mm^3. […] Behavior and signs of pain were monitored daily. Body weight and tumor volume were measured two to three times per week using electronic calipers, with tumor volume (in cubic millimeters) calculated as length (millimeters)/2 × width^2 (square millimeters). Tumor growth inhibition was analyzed using GraphPad Prism with one-way analysis of variance (ANOVA) and Dunn’s multiple comparisons test for treatment versus vehicle. Mice were euthanized on day 20, when the vehicle group reached ethical limits. Blood samples were collected by intracardiac puncture in EDTA-coated tubes for differential blood counts and hemograms, outsourced to IDEXX BioAnalytics. For biochemical analysis, blood was collected in heparin-lithium tubes, and plasma was isolated by centrifugation and frozen at −80°C. Plasma was analyzed using MS Scan II (Melet Schloesing) and VET16 reagent rotors to measure markers of renal and hepatic function, metabolism, and nutritional and muscular status. Differential counts, hemograms, and biochemical data were analyzed with GraphPad Prism using Kruskal-Wallis test and Dunn’s multiple comparisons test.

The subject of a further data set is DRG explants. The data set can be described thus: Mouse embryonic 3D DRG explants: axonal degeneration and myelination (MBP/TUBB3). Type of data set: cell-based. The note with it: 72 h; Carba1 12 μM or PTX 500 nM. As to the method:
Embryonic DRG 3D explants were prepared from E13.5 mouse embryos and seeded at one explant/1.9 cm^2 on acid-treated, Matrigel-coated glass coverslips ([64], [65]). Explants were cultured at 37°C under 5% CO2 and high saturated in humidity. From DIV 0 to DIV 3, cultures were maintained in C-medium supplemented with 10% FBS, 1× GlutaMAX, D-glucose (4 g/liter), 2.5S nerve growth factor (NGF; 50 ng/ml), and 1% penicillin/streptomycin. From DIV 3 to DIV 7, neurobasal medium supplemented with 1× B27, 1× GlutaMAX, D-glucose (4 g/liter), 2.5S NGF (50 ng/ml), and 1% penicillin/streptomycin was used to promote axon development. From DIV 7 onward, differentiation medium [C-medium supplemented with 5 μM forskolin, ascorbic acid (50 μg/ml), and heparin (25 μg/ml)] was used to support glial cell maturation and myelination, with medium changes occurring every 2 days.
DRGs were fixed with 10% formalin for 20 min at R.T., washed with PBS, and permeabilized for 10 min with PBS–0.1% Triton X-100. Blocking was performed using a solution of 3% bovine serum albumin (BSA), 0.1% glycine, and 5% goat preimmune serum in PBS for 2 hours at R.T. DRGs were then washed in PBS and incubated overnight at 4°C with of anti-TUBB3 (1 μg/ml) and anti-MBP (1 μg/ml). After PBS washes, secondary antibodies (goat anti-mouse Alexa Fluor 488, 1:1000, and goat anti-rabbit Alexa Fluor 647, 1:1000) were applied for 1 hour at R.T. Explants were mounted with ProLong Gold antifade reagent with 4′,6-diamidino-2-phenylindole (DAPI).
Images of random fields of DRG explants, fixed in 4% formaldehyde and immunostained for TUBB3 and MBP, were captured with consistent acquisition times across samples, using a Zeiss AxioImager M2 microscope, equipped with a Hamamatsu Orca R2 camera. Image analysis was performed using Fiji software. The images were thresholded using the default global autothreshold method. For each field, MBP^+ segments were counted and normalized to the TUBB3^+ area.

Another data set has as its system adult mouse DRG neurons. The data set can be described thus: Axonal degeneration index in dissociated adult mouse DRG neurons. Conditions: DIV 12 neurons, 72 h; Carba1 12 μM, PTX 50 nM, Cis 10 μM, Bort 100 nM.
The next data set deals with PTX-induced neuropathy. Description: Rat model of PTX-induced peripheral neuropathy (von Frey, serum NfL, IENFD). Format: in vivo. As to the method: Control animals received an equivalent volume of the vehicle (cremophor EL:ethanol, 1:1) diluted 1:4 in 0.9% NaCl.
Carba1 was injected intraperitoneally six times (50 mg/kg) on days 0, 1, 2, 4, 7, and 9, resulting in a cumulative dose of 300 mg/kg (Fig. 2F). For each injection, Carba1 was injected intraperitoneally at 50 mg/kg on days 0, 1, 2, 4, 7, and 9, for a cumulative dose of 300 mg/kg, using a stock solution (150 mg/ml; cremophor EL:ethanol, 1:1) diluted to 50 mg/ml in 0.9% NaCl. Control animals for Carba1 received the same volume of the vehicle [cremophor EL:ethanol (1:1) diluted 1:3 in 0.9% NaCl]. […] To prevent cross-exposure through feces and urine, treatment groups were randomized by cage, with each cage housing three animals.
Tactile allodynia, a common sensory disorder reported in animal models of CIPN ([56]), was assessed using an electronic von Frey test (Bioseb) ([68]). Rats were placed in plastic compartments on a wire floor and allowed to habituate for 15 min. […] The maximum force (in grams) causing withdrawal was recorded automatically. The average of two measurements, not differing by more than 10 g, was used as the nociceptive threshold ([68]). Rats were habituated to the compartments 3 days before the first injection, and the experimenter was blinded to treatment groups.
Blood samples were collected on day 15 in vials with a clot activator, left at R.T. for up to 1 hour before centrifugation at 4100 rpm at 20°C for 10 min. Serum was then collected, aliquoted, and stored at −80°C until analysis. To reduce batch effects, serum samples were randomized on assay plates. NfL concentration was measured in the serum using commercial kits (Simple Plex Ella ProteinSimple, USA; Rat NfL Kit ProteinSimple) ([27]).
Skin samples from both hind paws were fixed in 4% PFA overnight at 4°C, followed by sucrose cryoprotection (10, 20, and 30%) at 4°C overnight. After embedding in tissue freezing medium, the samples were at −80°C. Sections (20 μm) were cut using a cryostat at −17°C, washed with PBS for 5 min, and dried. The sections were blocked in PBS/0.2% Triton X-100/1%BSA for 1 hour and then incubated overnight at R.T. with anti-PGP9.5 antibody (1:400). After washing with PBS, sections were incubated with goat anti-rabbit Alexa Fluor488 secondary antibody for 2 hours, and the nuclei were stained with DAPI. Imaging was performed by acquiring 0.5 μm Z-stacks and exposure times for DAPI and fluorescein isothiocyanate set to 600 ms. Quantification followed the method described by Lauria et al. ([69]).

Setting [6] is: rat serum, day 15, outliers removed.

Where two headings read alike, the source gives them in different places.

Procedure for adult mouse DRG neurons: After 4 days in vitro (DIV), at least 30% of medium was changed, and 10 μM AraC (cytosine β-D-arabino furanoside) was added to suppress nonneuronal growth. […] Neurons were fixed with 4% paraformaldehyde (PFA), washed with PBS, permeabilized with PBS–0.01% Triton X-100 for 15 min, and blocked with PBS–10% FBS for 1 hour before being stained overnight at 4°C with neurofilament antibody. Following PBS washes, secondary antibody (goat anti-chicken Alexa Fluor 488) was applied for 2 hours at room temperature (R.T.). Following additional PBS washes, coverslips were mounted with Fluoromount-G.
Images of random fields of dissociated adult DRG neurons, immunostained with antineurofilament or anti-TUBB3 antibodies, were captured using a 20× objective lens (Olympus IX81) and a Sensicam QE monochrome camera (Cooke Corporation). Degeneration masks were generated on the basis of the method described by Gerdts et al. ([66]). Axonal degeneration was quantified by measuring the total axonal area and fragmented axonal area in the same field, using degeneration masks as shown in fig. […] Images were processed in Fiji using global autothresholding, binarization, and the particle analyzer module to detect fragments (20 to 10,000 pixels), as previously described ([17]). The degeneration index was calculated as the ratio of fragmented axonal area to total axonal area.

Turning to `OC(CNc1ccccc1)Cn1c2ccc(Br)cc2c2cc(Br)ccc21` (stereo not shown) [Compound P7C3, reference compound], in the data set on HeLa cells [1] (coadministration with FK866), the “relief of FK866 cytotoxicity” value is “unable to counteract the toxic effect of FK866”. On NAMPT [2], the “activation of NAMPT in vitro” value was “No significant effect”.

Consider `O=C(/C=C/c1cccnc1)NCCCCC1CCN(C(=O)c2ccccc2)CC1` [FK866, reference compound], for which the GI50 in the data set with HeLa cells [1] (read-out: GI50 of FK866 alone) worked out at 2.4 ± 0.09 nM. Further, the “reduction of NAD(P)H production” value in the data set on HeLa cells [3] was ~ 20%. In addition, the “binding to CA (AS-MS)” value in the data set with carbonic anhydrase (CA) is listed as “neither FK866 nor Carba1 was found to bind CA”. The “binding to NAMPT (AS-MS)” value at NAMPT [4] is recorded as “recovered in the fraction containing NAMPT”.

For the molecule `CC(=O)O[C@H]1C(=O)[C@@]2(C)[C@H]([C@H](OC(=O)c3ccccc3)[C@]3(O)C[C@H](OC(=O)[C@H](O)[C@@H](NC(=O)c4ccccc4)c4ccccc4)C(C)=C1C3(C)C)[C@]1(OC(C)=O)CO[C@@H]1C[C@@H]2O` [PTX, paclitaxel, reference compound], the 50% growth inhibitory concentration (GI50) in the data set on HeLa cells [1] (72 h, PrestoBlue, drug applied alone, read-out: GI50, drug alone) was determined as 4.2 ± 0.4 nM. In addition, the tumor size result in data set [5] is recorded as “markedly reduced tumor size”. Also, the “MBP staining (axonal myelination), agent alone” value in the data set on DRG explants is “significant reduction in MBP staining”. Also, the “axonal fragmentation / degeneration, agent alone” value in the data set on adult mouse DRG neurons is “induced robust axonal degeneration”. Moreover, in the data set on PTX-induced neuropathy (rat hind paw biopsies, day 15), the “IENFD, mean” value is given as 13.43 number/mm and the “IENFD, median” value is recorded as 13.62 number/mm. In the data set on PTX-induced neuropathy (setting [6]), the “NfL, mean” value was determined as 96.00 pg/mL and the “NfL, median” value is 82.50 pg/mL. For the same molecule, the “tactile allodynia (paw withdrawal threshold, electronic von Frey), agent alone” value with PTX-induced neuropathy (rat, i.p., PTX 5 mg/kg x4 or Carba1 50 mg/kg x6) was “developed a tactile allodynia”. For the same molecule, the “reduction of IENFD, agent alone” value with PTX-induced neuropathy (rat, vs controls) is recorded as 30%.

Values taken from paper PMC12571071, “Preventing neuropathy and improving anticancer chemotherapy with a carbazole-based compound” (Science Advances, 2025).
